Results reported in patent publication US11512268B2, “Storage-stable enzyme preparations, their production and use” (BASF SE, priority 2017, dated 2022).

What was measured:
Savinase = molecular target: T1, Savinase (Lederbergia lenta, UniProt P29600); experiment: storage stability of protease (Savinase activity, Suc-AAPF-pNA substrate) in liquid formulations at 37° C.; type: biochemical; settings: Savinase 16.0 L 0.5 wt %, storage at 37° C.
T1 construct: purchased Sigma-Aldrich
T1 sequence (P29600 1-269): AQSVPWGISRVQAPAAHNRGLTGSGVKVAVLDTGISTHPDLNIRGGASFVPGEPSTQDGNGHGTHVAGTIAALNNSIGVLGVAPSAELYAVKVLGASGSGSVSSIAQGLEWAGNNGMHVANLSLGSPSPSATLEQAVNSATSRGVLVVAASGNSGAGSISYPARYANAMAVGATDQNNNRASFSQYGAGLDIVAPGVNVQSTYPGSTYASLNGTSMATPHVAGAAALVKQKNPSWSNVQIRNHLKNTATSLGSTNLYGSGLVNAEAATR
Experimental: (§1) The storage stability of Lipase and Protease in water was assessed at 37° C.
(§2) Base test formulations were manufactured by making base formulations I to VI by mixing the components according to Table 1.
(§3) The respective salt (component (a)) or comparative compound was added, if applicable, to the respective base formulation in amounts as indicated in Table 1.
(§4) The amount of enzyme as provided in Table 1 refers to active protein. Either lipase or protease was added, depending on which enzyme activity was measured.
(§5) Lipolase® 100 L (CAS-No. 9001-62-1, EC-No. 232-619-9) was purchased from Sigma-Aldrich. Savinase® 16.0 L (CAS-No. 9014-01-1, EC-No. 232-752-2) was purchased from Sigma-Aldrich.
Savinase activity at certain points in time as indicated in Table 3 was be determined by employing Succinyl-Ala-Ala-Pro-Phe-p-nitroanilide (Suc-AAPF-pNA, short AAPF) as substrate. pNA is cleaved from the substrate molecule by proteolytic cleavage, resulting in release of yellow color of free pNA which was determined by measuring OD405. Measurement were done at 20° C.
The proteolytic activity values provided in Table 3 were calculated referring to the 100% value determined in the reference formulation at the time 0.
(§6) The nomenclature of formulations is as follows: the Roman number before the full stop characterizes the base formulation, the Arabian number the type of salt (A.# inventive salt (component (a)); C-(A.#) comparative compound). Zero (“0”): no salt, but diethylene glycol.

Lipolase = molecular target: T2, Lipolase (Thermomyces lanuginosus, UniProt O59952); experiment: storage stability of lipase (Lipolase activity, pNitrophenol-valerate substrate) in liquid formulations at 37° C.; type: biochemical, Thermomyces lanuginosa; settings: Lipolase 0.4 wt %, storage at 37° C.
T2 construct: purchased Sigma-Aldrich
T2 sequence (O59952 23-291): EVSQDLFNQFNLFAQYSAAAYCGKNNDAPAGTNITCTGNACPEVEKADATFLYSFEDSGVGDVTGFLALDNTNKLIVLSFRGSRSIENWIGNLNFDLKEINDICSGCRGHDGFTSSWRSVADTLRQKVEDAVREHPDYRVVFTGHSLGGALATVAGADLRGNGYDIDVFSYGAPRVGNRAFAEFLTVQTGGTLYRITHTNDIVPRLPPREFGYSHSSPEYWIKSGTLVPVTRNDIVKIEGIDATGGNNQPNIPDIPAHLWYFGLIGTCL
Experimental: as §1, §2, §3, §4, §5
Lipolase activity at certain points in time as indicated in Table 2 was be determined by employing pNitrophenol-valerate (2.4 mM pNP-C5 in 100 mM Tris pH 8.0, 0.01% Triton X100) as a substrate. The absorption was measured at 20° C. every 30 seconds over 5 minutes at 405 nm. The slope (absorbance increase at 405 nm per minute) of the time dependent absorption-curve is directly proportional to the activity of the lipase.
The lipolytic activity values provided in Table 2 were calculated referring to the 100% value determined in the reference formulation at the time 0.
as §6

[1] = base formulation I., component (a) 2.5 wt %, 1 d
[2] = base formulation I., component (a) 2.5 wt %, 3 d
[3] = base formulation I., component (a) 2.5 wt %, 6 d
[4] = base formulation I., component (a) 2.5 wt %, 10 d
[5] = base formulation I., component (a) 2.5 wt %, 15 d
[6] = base formulation I., component (a) 2.5 wt %, 20 d
[7] = base formulation I., component (a) 2.5 wt %, 25 d
[8] = base formulation I., component (a) 2.5 wt %, 30 d
[9] = base formulation I., component (a) 2.5 wt %, T0
[10] = base formulation IV., component (a) 4.0 wt %, 1 d
[11] = base formulation IV., component (a) 4.0 wt %, 3 d
[12] = base formulation IV., component (a) 4.0 wt %, 6 d
[13] = base formulation IV., component (a) 4.0 wt %, 10 d
[14] = base formulation IV., component (a) 4.0 wt %, 15 d
[15] = base formulation IV., component (a) 4.0 wt %, 20 d
[16] = base formulation IV., component (a) 4.0 wt %, 25 d
[17] = base formulation IV., component (a) 4.0 wt %, 30 d
[18] = base formulation V., component (a) 4.0 wt %, 1 d
[19] = base formulation V., component (a) 4.0 wt %, 3 d
[20] = base formulation V., component (a) 4.0 wt %, 6 d
[21] = base formulation V., component (a) 4.0 wt %, 10 d
[22] = base formulation V., component (a) 4.0 wt %, 15 d
[23] = base formulation V., component (a) 4.0 wt %, 20 d
[24] = base formulation V., component (a) 4.0 wt %, 25 d
[25] = base formulation V., component (a) 4.0 wt %, 30 d

Structure (SMILES): C[N+](C)(C)CCO.[Cl-] [C-(A.15), Choline chloride]
- protease activity (Savinase; [1]): 92%
- protease activity (Savinase; [2]): 85%
- protease activity (Savinase; [3]): 64%
- protease activity (Savinase; [4]): 47%
- protease activity (Savinase; [5]): 39%
- protease activity (Savinase; [6]): 31%
- protease activity (Savinase; [7]): 22%
- protease activity (Savinase; [8]): 8%
- protease activity (Savinase; [9]): 98%
- protease activity (Savinase; base formulation VI., component (a) 4.0 wt %, 1 d): 90%
- protease activity (Savinase; base formulation VI., component (a) 4.0 wt %, 3 d): 84%
- protease activity (Savinase; base formulation VI., component (a) 4.0 wt %, 6 d): 66%
- protease activity (Savinase; base formulation VI., component (a) 4.0 wt %, 10 d): 47%
- protease activity (Savinase; base formulation VI., component (a) 4.0 wt %, 15 d): 36%
- protease activity (Savinase; base formulation VI., component (a) 4.0 wt %, 20 d): 29%
- protease activity (Savinase; base formulation VI., component (a) 4.0 wt %, 25 d): 20%
- protease activity (Savinase; base formulation VI., component (a) 4.0 wt %, 30 d): 10%
- protease activity (Savinase; base formulation VI., component (a) 4.0 wt %, T0): 85%
- lipase activity (Lipolase; [1]): 95%
- lipase activity (Lipolase; [2]): 80%
- lipase activity (Lipolase; [3]): 67%
- lipase activity (Lipolase; [4]): 55%
- lipase activity (Lipolase; [5]): 41%
- lipase activity (Lipolase; [6]): 32%
- lipase activity (Lipolase; [7]): 22%
- lipase activity (Lipolase; [8]): 20%
- lipase activity (Lipolase; base formulation II., component (a) 2.5 wt %, 1 d): 95%
- lipase activity (Lipolase; base formulation II., component (a) 2.5 wt %, 3 d): 82%
- lipase activity (Lipolase; base formulation II., component (a) 2.5 wt %, 6 d): 65%
- lipase activity (Lipolase; base formulation II., component (a) 2.5 wt %, 10 d): 56%
- lipase activity (Lipolase; base formulation II., component (a) 2.5 wt %, 15 d): 40%
- lipase activity (Lipolase; base formulation II., component (a) 2.5 wt %, 20 d): 33%
- lipase activity (Lipolase; base formulation II., component (a) 2.5 wt %, 25 d): 26%
- lipase activity (Lipolase; base formulation II., component (a) 2.5 wt %, 30 d): 22%
- lipase activity (Lipolase; [10]): 95%
- lipase activity (Lipolase; [11]): 82%
- lipase activity (Lipolase; [12]): 72%
- lipase activity (Lipolase; [13]): 59%
- lipase activity (Lipolase; [14]): 44%
- lipase activity (Lipolase; [15]): 36%
- lipase activity (Lipolase; [16]): 30%
- lipase activity (Lipolase; [17]): 23%
- lipase activity (Lipolase; [18]): 95%
- lipase activity (Lipolase; [19]): 86%
- lipase activity (Lipolase; [20]): 74%
- lipase activity (Lipolase; [21]): 63%
- lipase activity (Lipolase; [22]): 54%
- lipase activity (Lipolase; [23]): 41%
- lipase activity (Lipolase; [24]): 39%
- lipase activity (Lipolase; [25]): 30%

Structure (SMILES): C[N+](C)(C)CCO.C[N+](C)(C)CCO.O=C([O-])C(O)C(O)C(=O)[O-] (centres unmarked) [C-(A.16)]
- protease activity (Savinase; [1]): 91%
- protease activity (Savinase; [2]): 84%
- protease activity (Savinase; [3]): 66%
- protease activity (Savinase; [4]): 49%
- protease activity (Savinase; [5]): 38%
- protease activity (Savinase; [6]): 30%
- protease activity (Savinase; [7]): 23%
- protease activity (Savinase; [8]): 10%
- protease activity (Savinase; [9]): 98%
- lipase activity (Lipolase; [1]): 90%
- lipase activity (Lipolase; [2]): 81%
- lipase activity (Lipolase; [3]): 68%
- lipase activity (Lipolase; [4]): 51%
- lipase activity (Lipolase; [5]): 40%
- lipase activity (Lipolase; [6]): 34%
- lipase activity (Lipolase; [7]): 25%
- lipase activity (Lipolase; [8]): 24%
- lipase activity (Lipolase; [9]): 95%
- lipase activity (Lipolase; [10]): 90%
- lipase activity (Lipolase; [11]): 81%
- lipase activity (Lipolase; [12]): 67%
- lipase activity (Lipolase; [13]): 55%
- lipase activity (Lipolase; [14]): 41%
- lipase activity (Lipolase; [15]): 34%
- lipase activity (Lipolase; [16]): 28%
- lipase activity (Lipolase; [17]): 25%
- lipase activity (Lipolase; base formulation IV., component (a) 4.0 wt %, T0): 95%
- lipase activity (Lipolase; [18]): 92%
- lipase activity (Lipolase; [19]): 85%
- lipase activity (Lipolase; [20]): 70%
- lipase activity (Lipolase; [21]): 65%
- lipase activity (Lipolase; [22]): 58%
- lipase activity (Lipolase; [23]): 49%
- lipase activity (Lipolase; [24]): 37%
- lipase activity (Lipolase; [25]): 28%
- lipase activity (Lipolase; base formulation V., component (a) 4.0 wt %, T0): 96%
